From BindingDB's records for PubMed 34170694 (China Pharmaceutical University, 2021)

Target: T1, Caspase-3 (Homo sapiens, UniProt P42574)
T1 sequence (P42574 whole entry): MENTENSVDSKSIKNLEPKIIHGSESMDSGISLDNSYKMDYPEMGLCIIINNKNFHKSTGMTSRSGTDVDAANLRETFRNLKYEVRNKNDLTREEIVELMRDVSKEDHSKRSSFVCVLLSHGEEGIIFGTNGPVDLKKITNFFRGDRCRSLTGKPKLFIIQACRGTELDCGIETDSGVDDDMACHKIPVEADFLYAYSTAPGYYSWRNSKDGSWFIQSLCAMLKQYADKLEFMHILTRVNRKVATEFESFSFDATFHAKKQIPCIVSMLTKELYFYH
Test: Activation of caspase 3 in human MDA-MB-231 cells measured after 48 hrs by Plate reader method

Structure (SMILES)	EC50
C=c1c(O)c(O)cc2c1=CC=C1[C@@]2(C)CC[C@@]2(C)[C@@H]3C[C@](C)(C(=O)O)CC[C@]3(C)CC[C@]12C	1.4 µM

Target: not listed separately
Test: Activation of caspase 3 in human MDA-MB-231 cells measured after 48 hrs by Plate reader method

Structure (SMILES)	EC50
CC1=C(O)C(=O)C=C2C1=CC=C1[C@@]2(C)CC[C@@]2(C)[C@@H]3C[C@](C)(C(=O)OCc4ccccc4)CC[C@]3(C)CC[C@]12C	1.6 µM
C#CCOC(=O)[C@]1(C)CC[C@]2(C)CC[C@]3(C)C4=CC=C5C(=CC(=O)C(OC(C)=O)=C5C)[C@]4(C)CC[C@@]3(C)[C@@H]2C1	19.3 µM
C#CCOC(=O)[C@]1(C)CC[C@]2(C)CC[C@]3(C)C4=CC=C5C(=CC(=O)C(OC(=O)CCC)=C5C)[C@]4(C)CC[C@@]3(C)[C@@H]2C1	20.9 µM
C#CCOC(=O)[C@]1(C)CC[C@]2(C)CC[C@]3(C)C4=CC=C5C(=CC(=O)C(OC(=O)c6ccc(Br)cc6)=C5C)[C@]4(C)CC[C@@]3(C)[C@@H]2C1	16.4 µM
C#CCOC(=O)[C@]1(C)CC[C@]2(C)CC[C@]3(C)C4=CC=C5C(=CC(=O)C(OC(=O)c6ccc(F)cc6)=C5C)[C@]4(C)CC[C@@]3(C)[C@@H]2C1	21.2 µM
C#CCOC(=O)[C@]1(C)CC[C@]2(C)CC[C@]3(C)C4=CC=C5C(=CC(=O)C(OC(=O)C=C)=C5C)[C@]4(C)CC[C@@]3(C)[C@@H]2C1	22.1 µM
C#CCOC(=O)[C@]1(C)CC[C@]2(C)CC[C@]3(C)C4=CC=C5C(=CC(=O)C(OC(=O)/C=C/C)=C5C)[C@]4(C)CC[C@@]3(C)[C@@H]2C1	19.7 µM
C#CCOC(=O)[C@]1(C)CC[C@]2(C)CC[C@]3(C)C4=CC=C5C(=CC(=O)C(OC(=O)/C=C/c6ccccc6)=C5C)[C@]4(C)CC[C@@]3(C)[C@@H]2C1	20.1 µM
C#CCOC(=O)[C@]1(C)CC[C@]2(C)CC[C@]3(C)C4=CC=C5C(=CC(=O)C(OC(=O)/C=C/c6ccccc6F)=C5C)[C@]4(C)CC[C@@]3(C)[C@@H]2C1	14.1 µM
C#CCOC(=O)[C@]1(C)CC[C@]2(C)CC[C@]3(C)C4=CC=C5C(=CC(=O)C(OC(=O)/C=C/c6cccc(Cl)c6)=C5C)[C@]4(C)CC[C@@]3(C)[C@@H]2C1	15.7 µM
C#CCOC(=O)[C@]1(C)CC[C@]2(C)CC[C@]3(C)C4=CC=C5C(=CC(=O)C(OC(=O)/C=C/c6cccc(C)c6)=C5C)[C@]4(C)CC[C@@]3(C)[C@@H]2C1	17.8 µM
C#CCOC(=O)[C@]1(C)CC[C@]2(C)CC[C@]3(C)C4=CC=C5C(=CC(=O)C(OC(=O)C(=C)C)=C5C)[C@]4(C)CC[C@@]3(C)[C@@H]2C1	14.9 µM
C#CCOC(=O)[C@]1(C)CC[C@]2(C)CC[C@]3(C)C4=CC=C5C(=CC(=O)C(OC(=O)N(CC)CC)=C5C)[C@]4(C)CC[C@@]3(C)[C@@H]2C1	20.4 µM
C#CCOC(=O)[C@]1(C)CC[C@]2(C)CC[C@]3(C)C4=CC=C5C(=CC(=O)C(OC(=O)N(C)CC)=C5C)[C@]4(C)CC[C@@]3(C)[C@@H]2C1	18.7 µM
C#CCOC(=O)[C@]1(C)CC[C@]2(C)CC[C@]3(C)C4=CC=C5C(=CC(=O)C(OC(=O)N(c6ccccc6)c6ccccc6)=C5C)[C@]4(C)CC[C@@]3(C)[C@@H]2C1	19.9 µM
C#CCOC(=O)[C@]1(C)CC[C@]2(C)CC[C@]3(C)C4=CC=C5C(=CC(=O)C(OC(=O)N6c7ccccc7Sc7ccccc76)=C5C)[C@]4(C)CC[C@@]3(C)[C@@H]2C1	18.5 µM

Structure (SMILES)	EC50
C#CCOC(=O)[C@]1(C)CC[C@]2(C)CC[C@]3(C)C4=CC=C5C(=CC(=O)C(OC(=O)N(C)C)=C5C)[C@]4(C)CC[C@@]3(C)[C@@H]2C1	23.9 µM
C#CCOC(=O)[C@]1(C)CC[C@]2(C)CC[C@]3(C)C4=CC=C5C(=CC(=O)C(OC(=O)N6c7ccccc7CCc7ccccc76)=C5C)[C@]4(C)CC[C@@]3(C)[C@@H]2C1	10 µM
C#CCOC(=O)[C@]1(C)CC[C@]2(C)CC[C@]3(C)C4=CC=C5C(=CC(=O)C(OC(=O)N6CCCCC6)=C5C)[C@]4(C)CC[C@@]3(C)[C@@H]2C1	24.1 µM
C#CCOC(=O)[C@]1(C)CC[C@]2(C)CC[C@]3(C)C4=CC=C5C(=CC(=O)C(OC(=O)N6CCCC6)=C5C)[C@]4(C)CC[C@@]3(C)[C@@H]2C1	24.3 µM
C#CCOC(=O)[C@]1(C)CC[C@]2(C)CC[C@]3(C)C4=CC=C5C(=CC(=O)C(OC(=O)N6c7ccccc7C=Cc7ccccc76)=C5C)[C@]4(C)CC[C@@]3(C)[C@@H]2C1	23.1 µM
C#CCOC(=O)[C@]1(C)CC[C@]2(C)CC[C@]3(C)C4=CC=C5C(=CC(=O)C(OC(=O)N6CCN(C)CC6)=C5C)[C@]4(C)CC[C@@]3(C)[C@@H]2C1	20.5 µM
C#CCOC(=O)[C@]1(C)CC[C@]2(C)CC[C@]3(C)C4=CC=C5C(=CC(=O)C(OC(=O)N(CCC)CCC)=C5C)[C@]4(C)CC[C@@]3(C)[C@@H]2C1	17.5 µM
C#CCOC(=O)[C@]1(C)CC[C@]2(C)CC[C@]3(C)C4=CC=C5C(=CC(=O)C(OC(=O)N(C)CCC)=C5C)[C@]4(C)CC[C@@]3(C)[C@@H]2C1	20.5 µM
C#CCOC(=O)[C@]1(C)CC[C@]2(C)CC[C@]3(C)C4=CC=C5C(=CC(=O)C(OC(=O)N(C)CCCC)=C5C)[C@]4(C)CC[C@@]3(C)[C@@H]2C1	20.3 µM
C#CCOC(=O)[C@]1(C)CC[C@]2(C)CC[C@]3(C)C4=CC=C5C(=CC(=O)C(OC(=O)N(CCCC)CCCC)=C5C)[C@]4(C)CC[C@@]3(C)[C@@H]2C1	22.3 µM
C#CCOC(=O)[C@]1(C)CC[C@]2(C)CC[C@]3(C)C4=CC=C5C(=CC(=O)C(OC(=O)N6CCN(c7ccccc7)CC6)=C5C)[C@]4(C)CC[C@@]3(C)[C@@H]2C1	19.3 µM
C#CCOC(=O)[C@]1(C)CC[C@]2(C)CC[C@]3(C)C4=CC=C5C(=CC(=O)C(OC(=O)N6CCN(c7ccc(Cl)cc7)CC6)=C5C)[C@]4(C)CC[C@@]3(C)[C@@H]2C1	20.1 µM
C#CCOC(=O)[C@]1(C)CC[C@]2(C)CC[C@]3(C)C4=CC=C5C(=CC(=O)C(OC(=O)N6CCN(c7ccccc7Cl)CC6)=C5C)[C@]4(C)CC[C@@]3(C)[C@@H]2C1	20.3 µM
C#CCOC(=O)[C@]1(C)CC[C@]2(C)CC[C@]3(C)C4=CC=C5C(=CC(=O)C(OC(=O)N6CCN(c7cccc(OC)c7)CC6)=C5C)[C@]4(C)CC[C@@]3(C)[C@@H]2C1	19.6 µM
C#CCOC(=O)[C@]1(C)CC[C@]2(C)CC[C@]3(C)C4=CC=C5C(=CC(=O)C(OC(=O)N6CCN(c7ccccc7OC)CC6)=C5C)[C@]4(C)CC[C@@]3(C)[C@@H]2C1	18.2 µM
